Drawing on ChEMBL document CHEMBL1201862, “PubChem BioAssay data set” (2004), this text covers EC50, AC50 and IC50 for eleven compounds.

Active and inactive are the calls of the source.

One experiment has as its target Transthyretin (Homo sapiens, UniProt P02766). In words: Luminescence-based cell-based high throughput dose response assay to identify activators of Transthyretin (TTR) transcription. It is filed as functional.
The target in experiment [1] is T1, RNA-binding protein pos-1 (Caenorhabditis elegans, UniProt G5EF15).
T1 sequence (G5EF15 whole entry): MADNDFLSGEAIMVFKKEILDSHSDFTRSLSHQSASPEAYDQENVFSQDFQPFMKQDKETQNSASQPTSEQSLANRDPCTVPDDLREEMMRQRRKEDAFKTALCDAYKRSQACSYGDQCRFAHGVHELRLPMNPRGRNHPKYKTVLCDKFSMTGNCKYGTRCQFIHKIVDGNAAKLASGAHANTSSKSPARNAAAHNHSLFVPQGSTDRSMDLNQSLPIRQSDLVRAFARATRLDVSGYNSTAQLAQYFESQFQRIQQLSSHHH
In words: disruptors of C. elegans POS-1 RNA interaction – biochemical, fluorescence polarization, dose response (AID 1964).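 Note: purified POS-1 fused to maltose binding protein made in E. coli; potency of compounds blocking POS-1 binding to fluorescent RNA.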

The target in experiment [2] is T2, Zinc finger protein mex-5 (Caenorhabditis elegans, UniProt Q9XUB2).
T2 sequence (Q9XUB2 whole entry): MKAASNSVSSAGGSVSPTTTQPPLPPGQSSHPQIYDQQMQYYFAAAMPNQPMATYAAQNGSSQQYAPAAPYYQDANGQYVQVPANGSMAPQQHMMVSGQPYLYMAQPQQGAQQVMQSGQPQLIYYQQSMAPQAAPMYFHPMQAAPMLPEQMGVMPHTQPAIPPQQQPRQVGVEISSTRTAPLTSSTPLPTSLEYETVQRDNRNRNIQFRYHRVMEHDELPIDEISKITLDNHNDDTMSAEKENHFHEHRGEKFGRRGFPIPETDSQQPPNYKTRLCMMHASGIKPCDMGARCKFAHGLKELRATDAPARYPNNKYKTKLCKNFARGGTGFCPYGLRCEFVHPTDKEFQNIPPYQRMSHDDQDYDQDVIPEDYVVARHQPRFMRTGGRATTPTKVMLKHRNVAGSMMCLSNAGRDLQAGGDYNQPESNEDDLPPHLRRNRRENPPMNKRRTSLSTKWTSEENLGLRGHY
In words: potency of MEX-5 RNA-binding blockers – biochemical, C. elegans, fluorescence polarization, dose response (AID 1960).

A short description of a further experiment: cells. Type of experiment: functional, cell-based.
Experiment [3] is described as follows: DRD fibroblast viability loss – cell-based, non-viral oncogenic, luminescence, dose response (AID 1934). Type of experiment: functional. To be noted: Homo sapiens.
The subject of experiment [4] is BJ. In words: cells. It is filed as functional, cell-based. To be noted: Homo sapiens.
Experiment [5] is described as follows: luciferase reporter signal suppression in cells – H4 neuroglioma cells, luminescence, dose response (AID 1990). Type of experiment: functional, cell-based.
Experiment [6] in a line: luciferase reporter signal reduction – luminescence, H4-C neuroglioblastoma cells, dose response (AID 2458).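 Note: H4 neuroglioblastoma cells stably carrying a luciferase reporter gene fusion.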 Type of experiment: functional, cell-based.
The subject of experiment [7] is BJ. In words: BJ-TERT-LT-ST fibroblast viability loss – cell-based, RAS-independent, luminescence, dose response (AID 1935).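 Note: BJ fibroblasts immortalized with TERT plus LT and ST oncogenes.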 Type of experiment: functional. To be noted: Homo sapiens.
Experiment [8] can be described thus: alpha-synuclein stem-loop luciferase translation blockers – H4 neuroglioma cells, luminescence, confirmation (AID 1988). Type of experiment: functional, cell-based.
Experiment [9] deals with BJ. In words: BJ-TERT fibroblast viability loss – cell-based, RAS-independent, luminescence, dose response (AID 1933). It is filed as functional. To be noted: Homo sapiens.
Experiment [10] in a line: alpha-synuclein stem-loop translation blockers – luminescence, H4 neuroglioblastoma cells, dose confirmation, confirmation (AID 2454).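 Note: H4 neuroglioblastoma cells carrying an alpha-synuclein 5'UTR luciferase reporter; potency for inhibition of the luciferase signal.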 Type of experiment: functional, cell-based.
Experiment [11] is described as follows: toxicity toward HEK293 cells – cell-based, dry powder samples, cytotoxicity control, dose response (AID 720567). Type of experiment: functional.
Experiment [12] concerns the target RNA-editing ligase 1, mitochondrial (Trypanosoma brucei brucei, UniProt P86926). In words: inhibition of trypanosome RNA editing ligase – biochemical, fluorescence, Trypanosoma brucei, dose response (AID 1117295). Type of experiment: functional.
The target of experiment [13] is T3, Histone-lysine N-methyltransferase NSD2 (Homo sapiens, UniProt O96028).
T3 sequence (O96028 whole entry): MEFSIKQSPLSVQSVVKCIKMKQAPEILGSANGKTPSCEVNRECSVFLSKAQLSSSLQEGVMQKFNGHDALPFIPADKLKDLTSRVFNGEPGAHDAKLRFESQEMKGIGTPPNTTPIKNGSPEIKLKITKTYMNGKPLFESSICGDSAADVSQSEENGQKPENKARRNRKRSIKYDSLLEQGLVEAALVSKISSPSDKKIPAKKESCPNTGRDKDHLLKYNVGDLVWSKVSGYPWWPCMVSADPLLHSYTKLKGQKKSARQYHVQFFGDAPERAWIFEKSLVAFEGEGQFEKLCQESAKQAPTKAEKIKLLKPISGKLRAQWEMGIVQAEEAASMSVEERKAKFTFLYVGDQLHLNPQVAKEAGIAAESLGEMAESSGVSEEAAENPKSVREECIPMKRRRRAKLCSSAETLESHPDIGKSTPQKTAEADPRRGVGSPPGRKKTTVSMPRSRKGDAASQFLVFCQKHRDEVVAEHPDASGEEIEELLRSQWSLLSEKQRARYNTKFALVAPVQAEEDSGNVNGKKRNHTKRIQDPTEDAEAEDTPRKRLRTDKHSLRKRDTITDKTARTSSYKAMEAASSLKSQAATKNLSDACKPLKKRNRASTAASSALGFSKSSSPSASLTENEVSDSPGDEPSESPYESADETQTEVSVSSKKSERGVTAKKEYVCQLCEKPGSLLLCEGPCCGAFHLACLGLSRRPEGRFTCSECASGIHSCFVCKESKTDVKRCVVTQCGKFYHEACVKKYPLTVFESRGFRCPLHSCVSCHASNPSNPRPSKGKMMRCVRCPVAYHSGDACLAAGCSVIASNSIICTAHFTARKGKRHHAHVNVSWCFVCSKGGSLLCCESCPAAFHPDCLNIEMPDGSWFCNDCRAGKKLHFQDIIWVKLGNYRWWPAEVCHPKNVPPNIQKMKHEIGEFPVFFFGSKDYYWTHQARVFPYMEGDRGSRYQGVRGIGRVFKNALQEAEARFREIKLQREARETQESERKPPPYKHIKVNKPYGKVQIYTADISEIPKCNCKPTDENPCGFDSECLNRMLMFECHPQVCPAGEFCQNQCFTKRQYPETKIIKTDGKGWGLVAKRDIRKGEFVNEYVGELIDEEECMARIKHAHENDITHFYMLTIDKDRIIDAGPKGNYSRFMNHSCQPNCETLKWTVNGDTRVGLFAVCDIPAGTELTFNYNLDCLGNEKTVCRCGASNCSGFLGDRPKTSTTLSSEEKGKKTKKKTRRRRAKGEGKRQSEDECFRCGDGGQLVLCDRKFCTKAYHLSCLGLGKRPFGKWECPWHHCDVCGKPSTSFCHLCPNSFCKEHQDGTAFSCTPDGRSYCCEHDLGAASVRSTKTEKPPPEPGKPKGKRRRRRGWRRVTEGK
Type of experiment: biochemical.

In experiment [14] the target is NAD-dependent protein deacylase sirtuin-5, mitochondrial (Homo sapiens, UniProt Q9NXA8). In words: sirtuin-5 deacylation blockers, concentration series – biochemical, fluorescence imaging, cherry-pick, set 5, dose response (AID 720591).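 Note: desuccinylation of succinyl peptide AMC substrate read as fluorescence after trypsin release; potency of inhibitors that lower fluorescence and may act on trypsin instead.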
Sequence of NAD-dependent protein deacylase sirtuin-5, mitochondrial (Q9NXA8 whole entry): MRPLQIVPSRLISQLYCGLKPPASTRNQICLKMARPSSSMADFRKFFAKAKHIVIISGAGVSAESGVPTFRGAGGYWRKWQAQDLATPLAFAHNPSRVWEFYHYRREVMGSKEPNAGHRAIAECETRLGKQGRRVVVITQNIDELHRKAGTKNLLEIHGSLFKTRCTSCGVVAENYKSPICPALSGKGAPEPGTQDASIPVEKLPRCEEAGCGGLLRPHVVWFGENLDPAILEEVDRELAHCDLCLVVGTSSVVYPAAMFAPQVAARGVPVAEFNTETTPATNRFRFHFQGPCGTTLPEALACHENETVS
Experiment [15] is described as follows: Luminescence Cell-Based Dose Response HTS to Identify Inhibitors of 5'UTR Stem-Loop Driven Prion Protein mRNA Translation in H4 Neuroglioblastoma Cells. [Related pubchem assays: 1827 (Project Summary), 1813 (Primary HTS)]. Type of experiment: functional.
Experiment [16] can be described thus: growth inhibition of yeast DHODH-expressing 3D7 parasites – SYBR Green, dry powder samples, dose response (AID 1159570).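 Note: parasite growth measured after 72 hours of compound exposure.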 Type of experiment: functional, cell-based.
A short description of experiment [17]: toxicity to human HepG2 hepatoma cells – cell-based, plate reader, dry powder samples, cytotoxicity control, dose response (AID 1159569).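 Note: inhibitor potency with signal falling toward the positive control level.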 Type of experiment: functional.
Experiment [18] in a line: P. falciparum Dd2 growth inhibitors, dose response, SYBR Green, cherry-picked samples (AID 1159567). Type of experiment: functional, cell-based.
Experiment [19] in a line: toxicity toward HepG2 liver cells – cell-based, plate reader, cherry-pick, antagonist series, cytotoxicity control, dose response (AID 743416). Type of experiment: functional.
A short description of experiment [20]: blockade of melanocortin 4 receptor signaling – cell-based, plate reader, cherry pick, counter-screen for LGR2 antagonist project, dose response (AID 743444).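 Note: transfected HEK 293 cells stimulated with alpha-MSH peptide; potency of inhibitors of the alpha-MSH evoked signal.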 It is filed as functional.
Experiment [21] is described as follows: A549 cell cytotoxicity, dose response, cytotoxicity control, plate reader, cherry-pick, antagonist series (AID 743412). It is filed as functional, cell-based.
The nature of experiment [22]: viability loss in HEK293 cells – cell-based, plate reader, cherry-picked samples, cytotoxicity control, dose response (AID 743446). It is filed as functional.
Experiment [23] is described as follows: growth inhibition of PfATP4-mutant resistant parasites – NITD609-resistant line, SYBR Green, dry powder, dose response (AID 1159571).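 Note: parasites synchronized at ring stage by sorbitol before testing.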 It is filed as functional, cell-based.
The nature of experiment [24]: blockers of bursicon-stimulated LGR2 cAMP reporter – cell-based, HEK293, CRE-luciferase reporter, cherry pick, set 2, dose response (AID 743343).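 Note: transfected cells were stimulated with diluted bursicon conditioned medium after compound addition.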 It is filed as functional.
The nature of experiment [25]: Dd2 malaria parasite growth inhibition potency – SYBR Green, dry powder samples, dose response (AID 1159566).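 Note: potency for growth inhibition with lower SYBR green DNA signal.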 Type of experiment: functional, cell-based.
Experiment [26] can be described thus: toxicity to human hepatoma HepG2 cells – cell-based, cherry-picked samples, cytotoxicity control, dose response (AID 1159577). Type of experiment: functional.

Sequence of RNA-editing ligase 1, mitochondrial (P86926 whole entry): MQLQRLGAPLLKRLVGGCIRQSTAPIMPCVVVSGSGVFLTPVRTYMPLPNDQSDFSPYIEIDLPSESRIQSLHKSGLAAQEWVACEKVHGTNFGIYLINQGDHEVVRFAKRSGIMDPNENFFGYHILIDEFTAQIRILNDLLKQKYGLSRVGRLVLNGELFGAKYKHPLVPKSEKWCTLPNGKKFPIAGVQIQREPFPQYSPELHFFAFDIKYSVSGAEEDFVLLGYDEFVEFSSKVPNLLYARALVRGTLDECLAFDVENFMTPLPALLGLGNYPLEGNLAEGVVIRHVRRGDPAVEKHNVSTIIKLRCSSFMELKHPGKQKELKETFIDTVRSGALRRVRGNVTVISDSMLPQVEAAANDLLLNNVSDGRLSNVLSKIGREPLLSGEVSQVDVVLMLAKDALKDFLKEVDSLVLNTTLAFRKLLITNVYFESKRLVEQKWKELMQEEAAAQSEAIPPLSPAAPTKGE

Take `CCCCN1C(=O)NC(=O)/C(=C(O)\C=C\c2ccc3c(c2)OCO3)C1=O`: the results for the EC50 (at Transthyretin; in experiment [1]; in experiment [2]) were > 167000 nM (inactive), 11500 nM (active) and 9120 nM (inconclusive), respectively.

As for `COc1ccc(NC(=O)C(=O)c2cn(CC(=O)N3CCCC3)c3ccccc23)cc1`, the half-maximal effective concentration (EC50) in the experiment “cells” is 515 nM (active); in experiment [3] it was 2250 nM (active); in the experiment on BJ [4], 1540 nM (active); in experiment [5], 269 nM (inconclusive); in [6], 323 nM (active); with BJ [7], 2340 nM (inconclusive). Also, the values for the EC50 (in [8]; in the experiment with BJ [9]; in [10]) were < 100 nM (active), 2770 nM (active) and 681 nM (active), respectively. In addition, the AC50 in experiment [11] was 143 nM (active).

Turning to `NC(=O)[C@H]1CC2(CC(c3cccc(NC(=O)[C@H]4CCC(=O)N4)c3)=NO2)CN1C(=O)c1ccccc1` (some centres undefined), the IC50 in [12] is 19700 nM (inactive).

Consider `CCCC(=O)NC1=C(N2CC2)C(=O)C(NC(=O)CCC)=C(N2CC2)C1=O`, for which the AC50 in experiment [13] is 6650 nM (active). The EC50 at Transthyretin is > 167000 nM (inactive).

Consider `COc1ccc(CC(=O)Nc2ccc(S(=O)(=O)N3CCN(C)CC3)cc2)cc1`, for which the AC50 in [14] is > 30000 nM (inactive).

Take `O=C(N/N=C/c1ccc(Cl)cc1)c1sccc1OCc1ccc(F)cc1`: the EC50 in the experiment “cells” was 1300 nM (active); in [15], < 100 nM (active); in experiment [5] it was 10200 nM (active); in [6] it was 889 nM (active); in [8], < 100 nM (active); in [10] it was > 3800 nM (not active). For the same compound, the half-maximal activity concentration (AC50) in [11] is 22300 nM (active).

On to `O=S1(=O)N[C@@H](Cc2ccccc2)COc2cccc(N3CCCC3)c21`, for which, in experiment [14], the AC50 was > 30000 nM (inactive).

For the compound `N#Cc1ccc(-c2ccc([C@@H]3[C@@H]4CN(C(=O)C5CCC5)C[C@H]3N4)cc2)cc1`, the concentration at half-maximal activity (AC50) in experiment [16] is 1190 nM (active); in experiment [17], > 100000 nM (inactive); in [18], 825 nM (active); in experiment [19], 22700 nM (active); in experiment [20], 7860 nM (active); in [21], 7740 nM (active). In addition, the AC50 in [22] is > 52000 nM (inactive); in experiment [23] it was 1350 nM (active); in [24] it was 5970 nM (active); in experiment [25], 1040 nM (active).

Take `COc1ccccc1S(=O)(=O)N(C)C[C@@H]1OCc2ccccc2-c2c(n(C)c3ccccc23)C(=O)N([C@H](C)CO)C[C@@H]1C`: the AC50 in [16] is 561 nM (active); in experiment [17] it was 89200 nM (active); in experiment [18], 729 nM (active); in experiment [23], 548 nM (active); in experiment [25] it was 423 nM (active); in [26] it was 36700 nM (active).

Take `COc1ccc(S(=O)(=O)N2CCCCN3[C@@H](CO)[C@@H](c4ccc(C5=CCCCC5)cc4)[C@@H]3C2)cc1`: the concentration at half-maximal activity (AC50) in experiment [18] was 972 nM (active); in experiment [26] it was 10200 nM (active).

Consider `COC(=O)C1=C(C)N(Cc2ccccc2C(F)(F)F)C(NCc2ccccc2)=NC1CCc1ccccc1` (centres undefined), for which, in experiment [12], the IC50 was > 96600 nM (inactive).
